Data reported in patent publication US20140331365A1 (priority 2008, published 2014).
Entries after “also recorded” stand apart in the source; their conditions may differ.

What was measured:
soybean root cells = format: cell-based; details: for stimulation of Avr1b(N)-GFP uptake into soybean roots: after 9 hr
AvrL567(N)-GFP = format: binding, Melampsora lini
Avr1b(N)-GFP = format: binding, Phytophthora sojae
soybean leaf cells = format: cell-based

Molecule: O=P(O)(O)O[C@@H]1C(O)[C@H](OP(=O)(O)O)[C@@H](O)C(O)[C@H]1O (stereo partly drawn) [1,3-IP2, Inositol 1,3 diphosphate]
- inhibition of entry of Avr2-GFP into soybean root cells (soybean root cells): inhibited
- inhibition of entry of AvrLm6-GFP into soybean root cells (soybean root cells): inhibited

Molecule: O=P(O)(O)OC1[C@@H](O)[C@H](O)C(OP(=O)(O)O)[C@H](O)[C@@H]1O (stereo partly drawn) [IP2, Inositol-1,4-diphosphate]
- inhibition of binding of AvrL567(N)-GFP to PI-4-P-containing liposomes (AvrL567(N)-GFP): completely block binding
- inhibition of entry of Avr2-GFP into soybean root cells (soybean root cells): inhibited
- inhibition of entry of AvrLm6-GFP into soybean root cells (soybean root cells): inhibited
- inhibition of uptake/entry of Arg9-GFP into soybean root cells (soybean root cells): completely unaffected
- inhibition of uptake/entry of Avr1b(N)-GFP into soybean root cells (soybean root cells): almost completely blocked
- inhibition of uptake/entry of AvrL567(N)-GFP into soybean root cells (soybean root cells): almost completely blocked
- inhibition of binding of Avr1b(N)-GFP to PI-4-P-containing liposomes (Avr1b(N)-GFP): inhibited binding

Molecule: CCCCCCCC(=O)OC[C@H](COP(=O)(O)OC1[C@H](O)[C@H](O)C(OP(=O)(O)O)[C@H](O)[C@H]1O)OC(=O)CCCCCCC (stereo partly drawn) [di-octanoyl-PI-4-P]
- promotion of uptake of Avr1b(N)-GFP and AvrL567(N)-GFP proteins containing alanine substitutions in the RXLR and dEER motifs (soybean root cells): did not promote the uptake
- stimulation of Arg9-GFP uptake in soybean root cells (soybean root cells): does not stimulate uptake
- stimulation of AvrL567(N)-GFP uptake into soybean roots (soybean root cells): strongly stimulated
- stimulation of Avr1b(N)-GFP uptake into soybean roots (soybean root cells): strong stimulation; also recorded: stimulated

Molecule: AAAA
- ablation (soybean leaf cells): 0

Molecule: Arg9
- Avr1b function / cell re-entry in particle bombardment assay (reduction of GUS-positive blue spots with Rps1b) (soybean leaf cells): could functionally replace the RXLR2 motif

Molecule: phosphatidyl choline [PC]
- stimulation of Avr1b(N)-GFP uptake into soybean roots (soybean root cells): did not stimulate uptake

Molecule: phosphatidyl ethanolamine [PE]
- stimulation of Avr1b(N)-GFP uptake into soybean roots (soybean root cells): did not stimulate uptake

Molecule: phosphatidyl inositol [PI]
- stimulation of Avr1b(N)-GFP uptake into soybean roots (soybean root cells): did not stimulate uptake
